Test results published in patent publication US20260191749A1, “COMPOSITION AND PROCESS OF MAKING BIO-BASED UPCYCLED OILS IN FLOW REACTORS” (RiKarbon, Inc., priority 2022, published 2026).

Key:
Assay type in all cases: physicochemical
[1] = Freezing point, ASTM S2386
Description: (§1) Specifications of Product. Key specifications of RKBA-14, RKBA17, RKBA-22 and RKBA28/33 products were determined by various ASTM methods.

Flash point, ASTM D93 = assay: Flash point, ASTM D93
Description: as §1

Pour point, ASTM D6749 = conditions: neat oil
Description: as §1

[2] = Boiling point, ASTM D1120, ASTM D6352
Description: as §1

Density, ASTM D1209 = assay: Density, ASTM D1209
Description: as §1

Viscosity, ASTM D445 = assay: Viscosity, ASTM D445
Description: as §1

RI of upcycled oils = assay: RI of upcycled oils
Description: as §1

[3] = I2 number, USP-NF-2022, issue 1
Description: as §1

| Freezing point [1] | Flash point (Flash point, ASTM D93) | Pour Point (Pour point, ASTM D6749) | Boiling point [2] | Density (Density, ASTM D1209; at 25° C.) | Viscosity at 20° C. (Viscosity, ASTM D445; 20° C.) | Viscosity at 40° C. (Viscosity, ASTM D445) | Viscosity at 100° C. (Viscosity, ASTM D445; 100° C.) | RI (RI of upcycled oils) | Density (Density, ASTM D1209; at 60º F) | 12 number [3] | SMILES |
| --- | --- | --- | --- | --- | --- | --- | --- | --- | --- | --- | --- |
| −10.5 ± −4 °C | 153 ± 8° ° C. | −21 °C | 319 ± 5 °C | 0.8049 g/mL | 11.35 cSt | 6.31 cSt | 1.96 cSt | – | – | – | CCCCCCCCCCCC(CCCCC)CCCCC [RKBA-22] |
| – | 121 ± 13° ° C. | – | 288 ± 12 °C | – | – | 3.42 cSt | – | 1.4 | 0.7895 g/mL | <0.3g/ g/100 g | CCCCCCC(CCCCC)CCCCC [RKBA-17] |
